From patent US20240041991A1, “STABLE LIQUID DISPERSINB COMPOSITIONS” (KANE BIOTECH INC., priority 2020, published 2024)
Like-named read-outs stand apart in the source and are kept apart here. Marks after values point to notes of the source that are not given here.

Columns and labels:
DispersinB [1] = type: biochemical, Aggregatibacter actinomycetemcomitans; details: 50 mM citrate buffer pH 5.9, salt concentration as in label, control with no salts = 100%
Source text: Activity of the control sample with no salts was considered 100%.

DispersinB [2] = details: 50 mM citrate buffer pH 5.9, 100 mM K2SO4 sample = 100%
DispersinB [3] = details: 50 mM Citrate, 100 mM NaCl pH 5.9 control = 100%
Protocol: DispersinB enzyme solutions (100 μg/ml) were prepared in 50 mM citrate buffer, containing 200 mM K2SO4. The pH was adjusted (5.4 to 5.9). DispersinB enzymatic activity was measured using β-N-Acetylglucosaminidase assay kit from Sigma (product code CS0780) in 96-well microtiter plate following the manufacturer's instructions. The data was represented as % enzymatic activity in comparison to enzyme activity of control sample that contained 100 μg/ml DispersinB in 50 mM citrate buffer (pH 5.9) containing 100 mM NaCl Activity of the control sample was considered 100%.

DispersinB [4] = type: biochemical, Aggregatibacter actinomycetemcomitans; details: 50 mM citrate buffer pH 5.9, 100 mM NaCl, levulinic acid % as in label, control = 100%
Protocol: DispersinB enzyme (100 μg/ml) solutions in 50 mM citrate buffer (pH 5.9), 100 mM NaCl containing Levulinic acid (0.25%-2%) were tested for DispersinB enzymatic activity following β-N-Acetylglucosaminidase assay.

O=S(=O)([O-])[O-].[K+].[K+] [K2SO4, potassium sulfate]
% enzymatic activity of DispersinB (Mean) (DispersinB [1]; listed as 100 mM K2SO4): 211* % | % enzymatic activity of DispersinB (Mean) (DispersinB [1]; listed as 200 mM K2SO4): 289* % | % Activity (DispersinB [2]; 100 mM K2SO4): 100% | % Activity (DispersinB [2]; 150 mM K2SO4): 143* % | % Activity (DispersinB [2]; 200 mM K2SO4): 149* % | % Activity (DispersinB [2]; 250 mM K2SO4): 159* % | % Activity (DispersinB [2]; 300 mM K2SO4): 141* % | % Activity (DispersinB [3]; pH 4): 11.06^ab % | % Activity (DispersinB [3]; pH 4.2): 22.55^ab % | % Activity (DispersinB [3]; pH 4.4): 34.17^ab % | % Activity (DispersinB [3]; pH 4.6): 57.21 ^ab % | % Activity (DispersinB [3]; pH 4.8): 81.09 ^ab % | % Activity (DispersinB [3]; pH 5): 118.00 ^ab % | % Activity (DispersinB [3]; pH 5.1): 133.61 ^ab % | % Activity (DispersinB [3]; pH 5.2): 149.86 ^ab % | % Activity (DispersinB [3]; pH 5.3): 142.65 ^ab % | % Activity (DispersinB [3]; pH 5.4): 162.25^a % | % Activity (DispersinB [3]; pH 5.5): 172.83^a % | % Activity (DispersinB [3]; pH 5.6): 166.67^a % | % Activity (DispersinB [3]; pH 5.7): 154.62^a % | % Activity (DispersinB [3]; pH 5.8): 146.99 ^ab % | % Activity (DispersinB [3]; pH 5.9): 143.77 ^ab % | % Activity (DispersinB [3]; pH 6): 130.81 ^ab %

CC(=O)CCC(=O)O [Levulinic acid, 4-oxopentanoic acid]
% enzymatic activity of DispersinB (Mean) (DispersinB [4]; listed as 0.25% Levulinic acid): 103* % | % enzymatic activity of DispersinB (Mean) (DispersinB [4]; listed as 0.5% Levulinic acid): 102% | % enzymatic activity of DispersinB (Mean) (DispersinB [4]; listed as 1% Levulinic acid): 104% | % enzymatic activity of DispersinB (Mean) (DispersinB [4]; listed as 2% Levulinic acid): 104* % | % enzymatic activity of DispersinB (Mean) (DispersinB [4]; listed as 3% Levulinic acid): 109* % | % enzymatic activity of DispersinB (Mean) (DispersinB [4]; listed as 4% Levulinic acid): 109* % | % enzymatic activity of DispersinB (Mean) (DispersinB [4]; listed as 5% Levulinic acid): 114* %
